# Experimental data as given in US20110015067A1, “Herbicidal Compositions Comprising Pyroxasulfone” (BASF SE, priority 2008, published 2011).
# Legend:
# Format in all cases: in vivo
# [1] = tested on: ALOMY (Alopecurus myosuroides); assay: pre-emergence greenhouse test; details: for observed activity in % destruction: pre-emergence, 7.5 g ai/ha
# Excerpt: (§1) For the pre-emergence treatment, directly after sowing the active compounds, which had been suspended or emulsified in water, were applied by means of finely distributed nozzles. The containers were irrigated gently to promote germination and growth and subsequently covered with transparent plastic hoods until plant had rooted. This cover caused uniform germination of the tests plants, unless this was adversely affected by active compounds.
# (§2) The respective herbicides A and/or safener were formulated as 10% by weight strength suspension concentrate and introduced to the spray liquor with the amount of solvent system used for applying the active compound. Herbicide B and/or safener were used as commercially available formulations and introduced to the spray liquor with the amount of solvent system used for applying the active compound. In the examples, the solvent used was water.
# (§3) The test period extended over 20 days. During this time, the plants were tended, and their response to the treatments with active compound was evaluated.
# (§4) In the following experiments, the herbicidal activity for the individual herbicide compounds (solo application) and of the mixture was assessed 8 days after treatment (8 DAT) and/or 20 days after treatment (20 DAT).
# (§5) The evaluation for the damage caused by the chemical compositions was carried out using a scale from 0 to 100%, compared to the untreated control plants. Here, 0 means no damage and 100 means complete destruction of the plants.
# [2] = tested on: AMARE (Amaranthus retroflexus); assay: pre-emergence greenhouse test
# Excerpt: as §1, §2, §3, §4, §5
# [3] = tested on: AMBEL (Ambrosia artemisifolia); assay: pre-emergence greenhouse test; details: for observed activity in % destruction: pre-emergence, 15 g ai/ha
# Excerpt: as §1, §2, §3, §4, §5
# [4] = tested on: BRAPL (Brachiaria plantaginea); assay: pre-emergence greenhouse test; details: BRAPL pre-emergence 7.5 g ai/ha
# Excerpt: as §1, §2, §3, §4, §5
# [5] = tested on: COMBE (Commelina benghalensis); assay: pre-emergence greenhouse test; details: for observed activity in % destruction: pre-emergence
# Excerpt: as §1, §2, §3, §4, §5
# [6] = tested on: ECHCG (Echinochloa crus-galli); assay: pre-emergence greenhouse test
# Excerpt: as §1, §2, §3, §4, §5
# ERBVI = assay: pre-emergence greenhouse test
# Excerpt: as §1, §2, §3, §4, §5
# [7] = tested on: PANDI (Panicum dichotomiflorum); assay: pre-emergence greenhouse test; details: PANDI pre-emergence 7.5 g ai/ha
# Excerpt: as §1, §2, §3, §4, §5
# [8] = tested on: PANMI (Panicum milliaceum); assay: pre-emergence greenhouse test
# Excerpt: as §1, §2, §3, §4, §5
# PHBPU (Ipomoea purpurea) = assay: pre-emergence greenhouse test
# Excerpt: as §1, §2, §3, §4, §5
# SETFA (Setaria faberii) = assay: pre-emergence greenhouse test
# Excerpt: as §1, §2, §3, §4, §5
# SETVI (Setaria viridis) = assay: pre-emergence greenhouse test
# Excerpt: as §1, §2, §3, §4, §5
# SOLNI (Solanum nigrum) = assay: pre-emergence greenhouse test; details: for observed activity in % destruction: pre-emergence, 7.5 g ai/ha
# Excerpt: as §1, §2, §3, §4, §5
# [9] = tested on: ALOMY (Alopecurus myosuroides); assay: post-emergence greenhouse test
# Excerpt: (§6) For the post-emergence treatment, the test plants were first grown to a height of 3 to 20 cm, depending on the plant habit, and only then treated. Here, the herbicidal compositions were suspended or emulsified in water as distribution medium and sprayed using finely distributing nozzles.
# as §2, §3, §4, §5
# [10] = tested on: CHEAL (Chenopodium album); assay: post-emergence greenhouse test; details: 15 g ai/ha
# Excerpt: as §6, §2, §3, §4, §5
# [11] = ALOMY pre-emergence 3.75 g ai/ha
# [12] = ALOMY pre-emergence 7.5 g ai/ha
# [13] = AMARE pre-emergence 3.75 g ai/ha
# [14] = AMARE pre-emergence 7.5 g ai/ha
# [15] = COMBE pre-emergence 3.75 g ai/ha
# [16] = COMBE pre-emergence 7.5 g ai/ha
# [17] = ECHCG pre-emergence 7.5 g ai/ha
# [18] = SETVI pre-emergence 3.75 g ai/ha
# [19] = SOLNI pre-emergence 7.5 g ai/ha
smiles,measurement,setting,value
COCc1cnc(C2=NC(C)(C(C)C)C(=O)N2)c(C(=O)O)c1 (stereo not shown) [imazamox],observed % destruction 8 DAT,[1]; [11],20%
same,observed % destruction 20 DAT,[1]; [11],40%
same,observed % destruction 8 DAT,[1]; [12],30%
same,observed % destruction 20 DAT,[1]; [12],40%
same,observed % destruction 8 DAT,[1]; ALOMY pre-emergence 15 g ai/ha,50%
same,observed % destruction 20 DAT,[1]; ALOMY pre-emergence 15 g ai/ha,80%
same,observed activity in % destruction,[1]; 8 DAT,30%
same,observed activity in % destruction,[1]; 20 DAT,40%
same,observed % destruction 8 DAT,[2]; [13],20%
same,observed % destruction 20 DAT,[2]; [13],30%
same,observed % destruction 8 DAT,[2]; [14],55%
same,observed % destruction 20 DAT,[2]; [14],80%
same,observed % destruction 8 DAT,[2]; AMARE pre-emergence 15 g ai/ha,65%
same,observed % destruction 20 DAT,[2]; AMARE pre-emergence 15 g ai/ha,95%
same,observed % destruction 8 DAT,[3]; AMBEL pre-emergence 15 g ai/ha,50%
same,observed % destruction 20 DAT,[3]; AMBEL pre-emergence 15 g ai/ha,80%
same,observed activity in % destruction,[3]; 8 DAT,50%
same,observed activity in % destruction,[3]; 20 DAT,80%
same,observed % destruction 8 DAT,[4],0%
same,observed % destruction 20 DAT,[4],45%
same,observed % destruction 8 DAT,[5]; [15],20%
same,observed % destruction 20 DAT,[5]; [15],30%
same,observed % destruction 8 DAT,[5]; [16],40%
same,observed % destruction 20 DAT,[5]; [16],35%
same,observed % destruction 8 DAT,[5]; COMBE pre-emergence 15 g ai/ha,50%
same,observed % destruction 20 DAT,[5]; COMBE pre-emergence 15 g ai/ha,75%
same,observed activity in % destruction,"[5]; 3.75 g ai/ha, 8 DAT",20%
same,observed activity in % destruction,"[5]; 3.75 g ai/ha, 20 DAT",30%
same,observed activity in % destruction,"[5]; 7.5 g ai/ha, 8 DAT",40%
same,observed activity in % destruction,"[5]; 7.5 g ai/ha, 20 DAT",35%
same,observed % destruction 20 DAT,[6]; ECHCG pre-emergence 3.75 g ai/ha,0%
same,observed % destruction 8 DAT,[6]; [17],20%
same,observed % destruction 20 DAT,[6]; [17],10%
same,observed % destruction 8 DAT,[6]; ECHCG pre-emergence 15 g ai/ha,60%
same,observed % destruction 20 DAT,[6]; ECHCG pre-emergence 15 g ai/ha,75%
same,observed % destruction 20 DAT,ERBVI; ERBVI pre-emergence 3.75 g ai/ha,0%
same,observed % destruction 20 DAT,ERBVI; ERBVI pre-emergence 7.5 g ai/ha,0%
same,observed % destruction 20 DAT,ERBVI; ERBVI pre-emergence 15 g ai/ha,20%
same,observed % destruction 8 DAT,[7],20%
same,observed % destruction 20 DAT,[7],75%
same,observed % destruction 20 DAT,[8]; PANMI pre-emergence 3.75 g ai/ha,20%
same,observed % destruction 20 DAT,[8]; PANMI pre-emergence 7.5 g ai/ha,30%
same,observed % destruction 20 DAT,PHBPU (Ipomoea purpurea); PHBPU pre-emergence 7.5 g ai/ha,20%
same,observed % destruction 20 DAT,PHBPU (Ipomoea purpurea); PHBPU pre-emergence 15 g ai/ha,70%
same,observed % destruction 20 DAT,SETFA (Setaria faberii); SETFA pre-emergence 3.75 g ai/ha,30%
same,observed % destruction 20 DAT,SETFA (Setaria faberii); SETFA pre-emergence 7.5 g ai/ha,60%
same,observed % destruction 20 DAT,SETFA (Setaria faberii); SETFA pre-emergence 15 g ai/ha,85%
same,observed % destruction 8 DAT,SETVI (Setaria viridis); [18],0%
same,observed % destruction 20 DAT,SETVI (Setaria viridis); [18],20%
same,observed % destruction 20 DAT,SETVI (Setaria viridis); SETVI pre-emergence 7.5 g ai/ha,90%
same,observed % destruction 8 DAT,SETVI (Setaria viridis); SETVI pre-emergence 15 g ai/ha,85%
same,observed % destruction 20 DAT,SETVI (Setaria viridis); SETVI pre-emergence 15 g ai/ha,95%
same,observed % destruction 20 DAT,SOLNI (Solanum nigrum); SOLNI pre-emergence 3.75 g ai/ha,20%
same,observed % destruction 8 DAT,SOLNI (Solanum nigrum); [19],30%
same,observed % destruction 20 DAT,SOLNI (Solanum nigrum); [19],80%
same,observed % destruction 20 DAT,SOLNI (Solanum nigrum); SOLNI pre-emergence 15 g ai/ha,85%
same,observed activity in % destruction,SOLNI (Solanum nigrum); 8 DAT,30%
same,observed activity in % destruction,SOLNI (Solanum nigrum); 20 DAT,80%
same,observed activity in % destruction,"[9]; 3.75 g ai/ha, 8 DAT",25%
same,observed activity in % destruction,"[9]; 3.75 g ai/ha, 20 DAT",30%
same,observed activity in % destruction,"[9]; 7.5 g ai/ha, 8 DAT",35%
same,observed activity in % destruction,"[9]; 7.5 g ai/ha, 20 DAT",35%
same,observed activity in % destruction,[10]; 8 DAT,0%
same,observed activity in % destruction,[10]; 20 DAT,0%
